# Data from patent US20260284064A1, “PI3K INHIBITORS FOR THE TREATMENT OF CANCER” (priority 2023, published 2026).
# Several values for one entry are separate records, joined by “and”; a condition that tells them apart may be missing. Identical values can stand only once. Like-named read-outs stand apart in the source and are kept apart here.
# Tests used:
# PI3Kδ (p110δ) = conditions: cited from earlier work
# [1] = tested on: KP4 cells comprising a PIK3CA LOF mutation; assay: cell viability assay in isogenic KP4 lines (PIK3CA LOF, wild type, PIK3CB knocked out); assay type: cell-based
# Protocol: To determine the effects of PI3K inhibitors in tumor cells harboring PIKCA mutations, cell lines with engineered PIK3CA were created and administered multiple PI3K inhibitors. In particular, an engineered line comprising a PIK3CA loss of function (LOF) mutant was compared to its parental line (PIK3CA wild type), and a cell line with PIK3CB knocked out. Various PI3K inhibitors were administered to each cell line.
# To create cells with a loss of function PIK3CA mutation (PIK3CA-LOF mutant), the PIK3CA gene was knocked out in KP4 cells using CRISPR genome editing (kits sold by Synthego). The parental line of KP4 cells comprising PIK3CA wild type was used as a comparator, and KP4 cells with PIK3CB knocked out were used as a control. A cell viability assay was performed by treating the three isogenic lines with various concentrations of three different PI3K inhibitors: GSK-2636771, a selective PI3K-beta (PIK3CB) inhibitor, AZD-8186, a PI3K-beta/delta (PIK3CB, PIK3CD) inhibitor, and seletalisib, a selective PI3K-delta (PIK3CD) inhibitor.
# PI3Kβ (p110β) = conditions: cited from earlier work
# PI3Kα (p110α) = conditions: cited from earlier work
# PI3Kγ (p110γ) = conditions: cited from earlier work
# [2] = tested on: PDX models with predicted LOF mutations in PIK3CA; assay: Example 7 patient derived xenograft (PDX) study; assay type: in vivo, NSG mice; conditions: 10 mg/kg or 3 mg/kg once daily by oral gavage
# [3] = tested on: PBMCs or other cell types; conditions: cited from earlier work
# BT474c cells = conditions: read-out: IC50, cell growth; cited from earlier work
# HCC70 = conditions: cited from earlier work
# [4] = tested on: PIK3CA-mutant line BT474c; conditions: read-out: potency in BT474c; cited from earlier work
# PC3 = conditions: cited from earlier work
# JEKO cells = conditions: IgM stimulated JEKO cells; read-out: IC50, cell growth; cited from earlier work
# [5] = tested on: pAKT (Ser473) in JEKO cells; conditions: read-out: IC50, IgM-stimulated phosphorylation of pAKT (Ser473); cited from earlier work
# [6] = tested on: pAKT (Ser473) in PTEN-null MDA-MB-468 cells; conditions: read-out: IC50, PI3Kβ-dependent activation of pAKT (Ser473); cited from earlier work
# MDA-MB-468 = conditions: end of study, cited from earlier work
# MDA-MB-468 cells = conditions: read-out: GI50, proliferation; cited from earlier work
# [7] = tested on: 74 protein and lipid kinases; conditions: cited from earlier work
# HID28 = HID28 explant model; cited from earlier work
# 442 other kinases = tested on: 442 other kinases; parameters: dose or concentration left out as unconfirmed; conditions: cited from earlier work
# [8] = cited from earlier work
# [9] = cited from earlier work; remark: listed apart in the source
# [10] = compared to KP4 PIK3CA wild type, FIG. 3
# [11] = read-out: IC50 for PI3Kβ (p110β)
# [12] = compared to KP4 PIK3CA wild type or PIK3CB LOF, FIG. 2
smiles,measurement,setting,value
C[C@H]1Cc2ccccc2N1C(=O)Cc1nc(=O)cc(N2CCOCC2)[nH]1 [SAR-260301],IC50,PI3Kδ (p110δ),469 nM
same,cancer cell inhibition in KP4 PIK3CA LOF cells,[1]; [10],favorable increases in cancer cell inhibition
same,IC50,PI3Kβ (p110β); [11],23 nM
same,IC50,PI3Kα (p110α),1540 nM
same,IC50,PI3Kγ (p110γ),10000 nM
Cc1cc([C@@H](C)Nc2ccccc2C(=O)O)c2nc(N3CCOCC3)cc(=O)n2c1 [AZD-6482],cancer cell inhibition in KP4 PIK3CA LOF cells,[1]; [10],favorable increases in cancer cell inhibition
C[C@H](Nc1ncnc2[nH]cnc12)c1nc2ccc(F)cc2c(=O)n1-c1ccccc1 [Acalisib],IC50,PI3Kδ (p110δ),12.7 nM and 14 nM
same,selectivity over the other class 1 PI3K enzymes,PI3Kδ (p110δ),greater than 100 fold
same,cancer cell inhibition in KP4 PIK3CA LOF cells,[1]; [10],reduced levels of cancer cell inhibition
same,IC50,"PI3Kβ (p110β); unit inferred, read-out: IC50 against PI3Kβ",3380 nM
Cc1c(Cn2c(C)nc3c(C(=O)O)cc(N4CCOCC4)cc32)cccc1C(F)(F)F [GSK-2636771],selectivity for p110β over p110δ,PI3Kδ (p110δ),10 fold
same,cancer cell inhibition in KP4 PIK3CA LOF cells,[1]; [12],favorable increases in cancer cell inhibition
same,survival outcomes,[2],significantly improved survival outcomes
same,tumor growth,[2],significantly reduced tumor growth
same,IC50,PI3Kβ (p110β); [11],5.2 nM
same,selectivity for p110β over p110α,PI3Kα (p110α),900 fold
same,selectivity for p110β over p110γ,PI3Kγ (p110γ),900 fold
[O-][n+]1cccc(-c2nc3c(Cl)cccc3cc2[C@@H](Nc2ncnc3cccnc23)C(F)(F)F)c1 [Seletalisib],IC50,PI3Kδ (p110δ),12 nM
same,cytotoxicity,[3],No indications of cytotoxicity
same,cancer cell inhibition in KP4 PIK3CA LOF cells,[1]; [12],no improvement in cancer cell inhibition
"C[C@@H](Nc1cc(F)cc(F)c1)c1cc(C(=O)N(C)C)cc2c(=O)cc(N3CCOCC3)oc12 [AZD-8186, (R)-8-(1-(3,5-Difluorophenylamino)ethyl)-N,N-dimethyl-2-morpholino-4-oxo-4H-chromene-6-carboxamide]",IC50,BT474c cells,1980 nM
same,tumor growth inhibition,"HCC70; HCC70, 25 mg/kg twice a day",62%
same,tumor growth inhibition,"HCC70; HCC70, 50 mg/kg twice a day",85%
same,IC50,[4],752 nM
same,IC50,PI3Kδ (p110δ),12 nM
same,cancer cell inhibition in KP4 PIK3CA LOF cells,[1]; [12],favorable increases in cancer cell inhibition
same,maximal growth inhibition,"PC3; PC3, 25 mg/kg twice a day",59%
same,reduction in tumor growth,"PC3; PC3, 30 mg/kg AZD-8186 co-dosed with Cyt P450 inhibitor ABT",86%
same,maximal growth inhibition,"PC3; PC3, 50 mg/kg twice a day",64%
same,IC50,JEKO cells,228 nM
same,IC50,[5],17 nM
same,IC50,PI3Kβ (p110β); [11],4 nM
same,IC50,[6],3 nM
same,tumor growth inhibition,"MDA-MB-468; MDA-MB-468, 25 mg/kg twice a day",47%
same,tumor growth inhibition,"MDA-MB-468; MDA-MB-468, 50 mg/kg twice a day",76%
same,GI50,MDA-MB-468 cells,65 nM
same,selectivity for PI3Kβ and δ versus 74 protein and lipid kinases,[7],> 100 fold
same,IC50,PI3Kα (p110α),35 nM
same,growth inhibition,HID28,79%
same,binding to 442 other kinases in KinomeScan screen,442 other kinases,no significant binding
same,IC50,PI3Kγ (p110γ),675 nM
same,exposure,"[8]; animals bearing PC3 tumors, co-dosed with Cyt P450 inhibitor ABT",significantly increased exposure
same,half-life,"[8]; mouse, in vivo",short half-life
Cc1cc(C(C)Nc2ccccc2)c2nc(N3CCOCC3)cc(=O)n2c1 (centres unmarked) [TGX-221],cancer cell inhibition in KP4 PIK3CA LOF cells,[1]; [10],favorable increase in cancer cell inhibition
same,cell permeability,[9],high cell permeability
Cc1nc(NC(=O)N2CCC[C@H]2C(N)=O)sc1-c1ccnc(C(C)(C)C(F)(F)F)c1 [Alpelisib],effect on PI3Kδ,PI3Kδ (p110δ); cell-free assay,minimal effect
same,effect on PI3Kβ,PI3Kβ (p110β); cell-free assay,minimal effect
same,effect on PI3Kγ,PI3Kγ (p110γ); cell-free assay,minimal effect
CC[C@H](Nc1ncnc2[nH]cnc12)c1nc2cccc(F)c2c(=O)n1-c1ccccc1 [Idelalisib],IC50,PI3Kδ (p110δ); cell-free assays,2.5 nM
